This passage reports melting point results from US6822097B1, “Compounds and methods of uses” (Amgen, Inc., priority 2002, dated 2004).

Where a name gives a salt, the structure may show the parent alone.

In general, melting point refers to the temperature, or range, at which the solid turns liquid.

Regarding `O=C(Nc1nc(-c2cc3ccccc3[nH]c2=O)cs1)c1ccccc1` (as salt: HCl) [Example 71, N-[4-(2-Oxo(3-hydroquinolyl))(1,3-thiazol-2-yl)]benzamide], the melting point was 309 to 311 °C (dec.).

Regarding `Nc1nc(-c2cc3ccccc3[nH]c2=O)cs1` (as salt: hydrobromid) [Example 66, 3-(2-Amino-1,3-thiazol-4-yl)hydroquinolin-2-one], the melting point is over 300 °C.

As for `O=c1[nH]c2ccccc2cc1-c1csc(Nc2ccccn2)n1` (as salt: hydrobromid) [Example 67, 3-[2-(2-pyridylamino)-1,3-thiazol-4-yl]hydroquinolin-2-one], the melting point is 307 to 312 °C (dec.).

Molecule `O=c1[nH]c2ccccc2cc1-c1csc(Nc2cccnc2)n1` (as salt: hydrobromid) [Example 68, 3-[2-(3-Pyridylamino)-1,3-thiazol-4-yl]hydroquinolin-2-one] registered a melting point of over 300 °C.

Turning to `O=c1[nH]c2ccccc2cc1-c1csc(Nc2ccncc2)n1` (as salt: hydrobromid) [Example 69, 3-[2-(4-Pyridylamino)-1,3-thiazol-4-yl]hydroquinolin-2-one], the melting point was over 300 °C.

For the molecule `CNc1nc(-c2cc3ccccc3[nH]c2=O)cs1` (as salt: hydrobromid) [Example 75, 3-[2-(Methylamino)-1,3-thiazol-4-yl]hydroquinolin-2-one hydrobromide], the melting point was 292 to 293 °C.

Take `O=c1[nH]c2ccccc2cc1-c1csc(NCc2ccco2)n1` (as salt: hydrobromid) [Example 79, 3-{2-[(2-Furylmethyl)amino]-1,3-thiazol-4-yl}hydroquinolin-2-one hydrobromide]: the melting point is 221 to 224 °C (dec.).

In the case of `O=c1[nH]c2ccccc2cc1-c1csc(NCCN2CCOCC2)n1` (as salt: hydrobromid) [Example 80, 3-{2-[(2-Morpholin-4-ylethyl)amino]-1,3-thiazol-4-yl}hydroquinolin-2-one hydrobromide], the melting point lay within 237 to 239 °C.

In turn, `Nc1c(-c2csc(-c3ccncc3)n2)c(=O)[nH]c2ccccc12` (as salt: salt) [Example 6, 3-[2-(4-Pyridyl)-4-thiazolyl]-4-amino-2(1H)-quinolinone] had a melting point of over 250 °C.

In turn, `O=c1[nH]c2ccccc2cc1-c1nc(-c2ccncc2)cs1` (as salt: salt) [Example 111, 3-(4-Pyridin-4-yl-thiazol-2-yl)-1H-quinolin-2-one] yielded a melting point of over 300 °C.

As for `O=c1[nH]c2ccccc2cc1-c1csc(-c2ccncc2)n1` [Example 1, 3-[2-(4-Pyridyl)-4-thiazolyl]-2(1H)-quinolinone], the melting point is 241 to 243 °C.

`O=c1[nH]c2ccccc2cc1-c1csc(-c2cccnc2)n1` [Example 2, 3-[2-(3-Pyridyl)-4-thiazolyl]-2(1H)-quinolinone] registered a melting point of 230 to 232 °C.

In the case of `Cc1c(-c2csc(-c3ccncc3)n2)c(=O)[nH]c2ccccc12` [Example 3, 3-[2-(4-Pyridyl)-4-thiazolyl]-4-methyl-2(1H)-quinolinone], the melting point is over 250 °C.

`O=c1[nH]c2ccccc2c(-c2ccccc2)c1-c1csc(-c2ccncc2)n1` [Example 4, 3-[2-(4-Pyridyl)-4-thiazolyl]-4-phenyl-2(1H)-quinolinone] showed a melting point of over 250 °C.

For the molecule `O=c1[nH]c2ccccc2c(O)c1-c1csc(-c2ccncc2)n1` [Example 5, 3-[2-(4-pyridyl)-4-thiazolyl]-4-hydroxy-2(1H)-quinolinone], the melting point is over 250 °C.

With `Nc1c(-c2csc(-c3ccncc3)n2)c(=O)[nH]c2ccc(N3CCCCC3)cc12` [Example 7, 3-[2-(4-Pyridyl)-4-thiazolyl]-4-amino-6-(1-piperidinyl)-2(1H) -quinolinone], the melting point was 199 to 202 °C.

In turn, `COC(=O)c1cccc2[nH]c(=O)c(-c3csc(-c4ccncc4)n3)cc12` [Example 8, 1,2-Dihydro-2-oxo-3-[2-(4-pyridyl)-4-thiazolyl]-5-quinolinecarboxylic acid methyl ester] registered a melting point of over 250 °C.

`O=c1[nH]c2cc3c(cc2cc1-c1csc(-c2cccnc2)n1)OCO3` [Example 9, 3-[2-(3-Pyridyl)-4-thiazolyl]-6,7-(methylenedioxyl)-2(1H)-quinolinone] displayed a melting point of over 220 °C.

On to `O=C(O)c1cccc2[nH]c(=O)c(-c3csc(-c4ccncc4)n3)cc12` [Example 10, 1,2-Dihydro-2-oxo-3-[2-(4-pyridyl)-4-thiazolyl]-5-quinolinecarboxylic acid], for which the melting point is over 250 °C.

Turning to `CCN(CC)C(=O)c1cccc2[nH]c(=O)c(-c3csc(-c4ccncc4)n3)cc12` [Example 11, N,N-Diethyl-1,2-dihydro-2-oxo-3-[2-(4-pyridyl)-4-thiazolyl]-5-quinolinecarboxamide], the melting point was 210 °C (dec.).

In the case of `O=c1[nH]c2cc3c(cc2cc1-c1csc(-c2ccncc2)n1)OCO3` [Example 18, 7-(2-(4-Pyridinyl)-1,3-thiazol-4-yl)[1,3]dioxolo[4,5-g]quinolin-6(5H)-one], the melting point lay within 167 to 169 °C.

`COc1cc2[nH]c(=O)c(-c3csc(-c4ccncc4)n3)c(N)c2cc1OC` [Example 19, 3-[2-(4-pyridyl)-4-thiazolyl]-4-amino-6,7-dimethoxy-2(1H)-quinolinone] yielded a melting point of over 250 °C.

For `COc1cc2[nH]c(=O)c(-c3csc(-c4cccnc4)n3)c(N)c2cc1OC` [Example 20, 3-[2-(3-Pyridyl)-4-thiazolyl]-4-amino-6,7-dimethoxy-2(1H)-quinolinone], the melting point was over 250 °C.

In turn, `Nc1c(-c2csc(-c3ccncc3)n2)c(=O)[nH]c2ccc(Cl)cc12` [Example 21, 3-[2-(4-Pyridyl)-4-thiazolyl]-4-amino-6-chloro-2(1H)-quinolinone] registered a melting point of over 220 °C.

The molecule `CN1CCN(c2ccc3[nH]c(=O)c(-c4csc(-c5ccncc5)n4)c(N)c3c2)CC1` [Example 22, 3-[2-(4-Pyridyl)-4-thiazolyl]-4-amino-6-(4-methyl-1-piperazinyl)-2(1H)-quinolinone] showed a melting point of over 220 °C.

Regarding `Nc1nc(-c2c(-c3ccccc3)c3ccccc3[nH]c2=O)cs1` [Example 23, 3-(2-Amino-4-thiazolyl)-4-phenyl-2(1H)-quinolinone], the melting point was over 220 °C.

As for `O=c1[nH]c2ccccc2cc1-c1csc(NS(=O)(=O)c2ccccc2)n1` [Example 70, 3-{2-[(Phenylsulfonyl)amino]-1,3-thiazol-4-yl}hydroquinolin-2-one], the melting point was over 300 °C.

Regarding `O=C(Cc1ccccc1)Nc1nc(-c2cc3ccccc3[nH]c2=O)cs1` [Example 72, N-[4-(2-Oxo(3-hydroquinolyl))(1,3-thiazol-2-yl)]-2-phenylacetamide], the melting point lay within 272 to 278 °C.

Turning to `COc1ccc(CC(=O)Nc2nc(-c3cc4ccccc4[nH]c3=O)cs2)c(OC)c1` [Example 73, 2-(2,4-Dimethoxyphenyl)-N-[4-(2-oxo(3-hydroquinolyl))(1,3-thiazol-2-yl)]acetamide], the melting point was 295 to 300 °C (dec.).

`O=c1[nH]c2ccccc2cc1-c1csc(NS(=O)(=O)c2ccc(OC(F)(F)F)cc2)n1` [Example 74, 3-[2-({[4-(Trifluoromethoxy)phenyl]sulfonyl}amino)-1,3-thiazol-4-yl]hydroquinolin-2-one] gave a melting point of over 300 °C.

Consider `CN(C(=O)c1ccccc1)c1nc(-c2cc3ccccc3[nH]c2=O)cs1` [Example 76, N-Methyl-N-[4-(2-oxo(3-hydroquinolyl))(1,3-thiazol-2-yl)]benzamide], for which the melting point was over 300 °C.

For `O=c1[nH]c2ccccc2cc1-c1csc(Nc2ccccc2F)n1` [Example 78, 3-{2-[(2-Fluorophenyl)amino]-1,3-thiazol-4-yl}hydroquinolin-2-one], the melting point is 277 to 278 °C (dec.).

As to `CS(=O)(=O)c1ccc(-c2csc(-c3cc4ccccc4[nH]c3=O)n2)cc1` [Example 112, 3-{4-[4-(Methylsulfonyl)phenyl]-1,3-thiazol-2-yl}hydroquinolin-2-one], the melting point was over 300 °C.

Turning to `N#Cc1ccc(-c2csc(-c3cc4ccccc4[nH]c3=O)n2)cc1` [Example 113, 4-[2-(2-Oxo-3-hydroquinolyl)-1,3-thiazol-4-yl]benzenecarbonitrile], the melting point was over 300 °C.

In turn, `O=c1[nH]c2ccccc2cc1-c1nc(-c2cccc([N+](=O)[O-])c2)cs1` [Example 114, 3-[4-(3-Nitrophenyl)-1,3-thiazol-2-yl]hydroquinolin-2-one] showed a melting point of over 300 °C.

For `COc1cccc(-c2csc(-c3cc4ccccc4[nH]c3=O)n2)c1` [Example 115, 3-[4-(3-Methoxyphenyl)-1,3-thiazol-2-yl]hydroquinolin-2-one], the melting point lay within 279 to 282 °C.

`Cc1onc(-c2ccccc2)c1-c1csc(-c2cc3ccccc3[nH]c2=O)n1` [Example 116, 3-[4-(5-Methyl-3-phenylisoxazol-4-yl)-1,3-thiazol-2-yl]hydroquinolin-2-one]: the melting point fell in the range of 242 to 244 °C.

`O=c1[nH]c2ccccc2cc1-c1csc(N(Cc2ccccc2)S(=O)(=O)c2ccccc2)n1` [Example 8728, N-Benzyl-N-[4-(2-oxo-1,2-dihydro-quinolin-3-yl)-thiazol-2-yl]-benzenesulfonamide]: the melting point lay within 228 to 232 °C.

`C=CCN(c1nc(-c2cc3ccccc3[nH]c2=O)cs1)S(=O)(=O)c1ccccc1` [Example 8729, N-Allyl-N-[4-(2-oxo-1,2-dihydro-quinolin-3-yl)-thiazol-2-yl]-benzenesulfonamide] gave a melting point of 214 to 216 °C.

Regarding `CN(c1nc(-c2cc3ccccc3[nH]c2=O)cs1)S(=O)(=O)c1ccc(Br)cc1` [Example 8730, 4-Bromo-N-methyl-N-[4-(2-oxo-1,2-dihydro-quinolin-3-yl)-thiazol-2-yl]-benzenesulfonamide], the melting point was 280 to 282 °C.

The molecule `CN(c1nc(-c2cc3ccccc3[nH]c2=O)cs1)S(=O)(=O)c1cccc(F)c1` [Example 8731, 3-Fluoro-N-methyl-N-[4-(2-oxo-1,2-dihydro-quinolin-3-yl)-thiazol-2-yl]-benzenesulfonamide] had a melting point of 247 to 249 °C.
